According to PMC7865276, “Chemical Constituents of the Bulbs of Scilla peruviana and Their Pancreatic Lipase Inhibitory Activity” (International Journal of Molecular Sciences, 2021):

Key:
[1] = molecular target: T1, lipase from porcine pancreas, TYPE II (Sus scrofa, UniProt P00591); experiment: pancreatic lipase inhibitory activity (Lipase Kit S, BALB substrate); assay type: biochemical; details: for pancreatic lipase inhibitory activity (in words): in vitro, 0.45, 0.90 and 4.5 mM
T1 construct: lipase from porcine pancreas, TYPE II; purchased Sigma-Aldrich; host or cells: porcine pancreas (tissue preparation)
T1 sequence (P00591 1-450): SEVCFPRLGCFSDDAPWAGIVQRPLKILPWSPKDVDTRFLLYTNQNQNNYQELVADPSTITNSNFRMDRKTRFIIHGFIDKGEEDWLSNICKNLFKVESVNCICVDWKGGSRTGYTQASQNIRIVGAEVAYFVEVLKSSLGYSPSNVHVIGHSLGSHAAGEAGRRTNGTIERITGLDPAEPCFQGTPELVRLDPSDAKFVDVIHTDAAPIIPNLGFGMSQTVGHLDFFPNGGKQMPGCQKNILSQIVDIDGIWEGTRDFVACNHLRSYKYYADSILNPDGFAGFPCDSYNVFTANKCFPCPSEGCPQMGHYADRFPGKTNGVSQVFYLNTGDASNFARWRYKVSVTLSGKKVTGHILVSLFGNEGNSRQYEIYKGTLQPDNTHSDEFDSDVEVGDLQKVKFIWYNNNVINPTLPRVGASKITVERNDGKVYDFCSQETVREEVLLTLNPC
Protocol: The pancreatic lipase activity of each test sample was measured by a modified method using a commercially available kit (Lipase Kit S, Dainippon Pharmaceutical). The purities of test samples were confirmed by HPLC analysis (Figure S6 in Supplementary Materials). Cetilistat was used as a positive control at 0.1, 1.0, and 10 μM. Test sample was dissolved in EtOH–H2O (1:1) and diluted to concentrations of 0.45, 0.90, and 4.5 mM, respectively. Lipase (lipase from porcine pancreas, TYPE II, 100–500 units/mg) was purchased from Sigma-Aldrich. Briefly, test sample was mixed with enzyme buffer, and incubated for 5 min at 30 °C. After incubation, 2,3-dimercapto-1-propanol tributyrate (BALB) as substrate was added and the enzyme reaction was proceeded for 30 min at 30 °C. Lipase activity was determined by measuring the absorbance of the resulting 5-thio-2-nitrobenzoate anion at 412 nm using a microplate reader. The inhibition rate was calculated by the following formula: Inhibition rate (%) = [1 − (ΔAsample − ΔAblank)/(ΔAcontrol − ΔAblank)] × 100. The inhibitory concentration (IC50) was calculated by log-Probit analysis.

mice = system: mice; set-up: method as in earlier work; details: oral administration; cited from earlier work
[2] = system: cyclic adenosine monophosphatase (cAMP) phosphodiesterase; set-up: method as in PMID 8149459, doi:10.1246/cl.1992.1863; details: cited from earlier work
pancreatic lipase = system: pancreatic lipase; set-up: method as in PMID 25389058; details: cited from earlier work
ddY mice = experiment: serum TG levels in intralipid (soybean oil)-loaded mice; assay type: in vivo; details: for serum TG levels: 15 min before intralipid loading, 120 min after intralipid, mean ± S.E.M., n = 5
Protocol: Male ddY mice, 5 weeks old, were purchased from Japan Laboratory Animals and maintained in the animal facility of the Tokyo University of Pharmacy and Life Sciences. The animals were housed in cages under controlled temperature (23 ± 2 °C) and a 12 h light-dark cycle. The mice were allowed free access to breeding food and water. All experiments were approved by the Tokyo University of Pharmacy and Life Sciences Animal Use Committee (approval number: P17-84, date of approval: 24 April 2017).
After 5 weeks, mice were fasted overnight and randomly divided into five groups (n = 5). The body weight of each mouse was measured (24.0–30.7 g/body). 0.5% Carboxymethyl cellulose (CMC; Wako Pure Chemical Industries), cetilistat (Tokyo Kasei, purity > 98.0%; 180 mg/kg), or compound 6 (150 or 300 mg/kg) were prepared for test samples and the intralipid (soybean oil 20% emulsion, 20 mL/kg, Sigma-Aldrich) was used for the high-fat diet. Single dose of 0.5% CMC, cetilistat, and compound 6 (150 or 300 mg/kg) were orally administered to mice in each group (n = 5) 15 min before the intralipid loading. Blood samples were collected from the abdominal vena cava 120 min after the intralipid-loaded treatment and centrifuged (700× g for 10 min) to obtain serum samples. The TG levels in serum were measured using a commercially available kit (Wako Triglyceride E-Test kit, Wako Pure Chemical Industries).

[3] = mean ± S.E.M. of three experiments in triplicate, tested at 0.45, 0.90, 4.5 mM

| Molecule | IC50 [1, 3] [µM] | pancreatic lipase inhibitory activity (in words) [1] | further results |
| --- | --- | --- | --- |
| CCC(=O)[C@@H]1C[C@@H](C)[C@]2(CC[C@@]3(C)C4=C(CC[C@@]32C)[C@@]2(C)CC[C@H](O[C@@H]3O[C@H](CO[C@@H]5OC[C@H](O)[C@H](O)[C@H]5O[C@@H]5O[C@H](CO)[C@@H](O)[C@H](O[C@@H]6O[C@H](CO)[C@@H](O)[C@H](O)[C@H]6O)[C@H]5O[C@@H]5O[C@@H](C)[C@H](O)[C@@H](O)[C@H]5O)[C@@H](O)[C@H](O)[C@H]3O)C(CO)(CO)[C@@H]2CC4)O1 [Compound 10, 15-deoxy-30-hydroxyeucosterol3β-[O-β-D-glucopyranosyl-(1→3)-O-[α-L-rhamnopyranosyl-(1→2)]-β-D-glucopyranosyl-(1→2)-O-α-L-arabinopyranosyl-(1→6)-O-β-D-glucopyranoside]] | 1130 ± 62 |  |  |
| COC(=O)/C(C)=C/[C@H]1[C@H](O)O[C@H]2C[C@@]3(C)C4=C(CC[C@]3(C)[C@@]2(O)[C@@H]1C)[C@@]1(C)CC[C@H](O[C@@H]2O[C@H](CO)[C@@H](O)[C@H](O)[C@H]2O[C@@H]2O[C@H](CO)[C@@H](O)[C@H](O)[C@H]2O[C@@H]2O[C@@H](C)[C@H](O)[C@@H](O)[C@H]2O)[C@](C)(CO)[C@@H]1CC4 [Compound 5, peruvianoside B] | 1400 ± 35 |  |  |
| C=C1C(O)CCC2C1(C)CCC1C2(C)CCC2(C)C3C(C(C)C)CCC3(C)CCC12C (stereo not drawn) [cymbopogonol] |  |  | effect on serum TG levels (in words) (mice): reduced serum TG levels in mice |
| COC(=O)/C(C)=C/[C@H]1[C@H](OC)O[C@H]2C[C@@]3(C)C4=C(CC[C@]3(C)[C@@]2(O)[C@@H]1C)[C@@]1(C)CC[C@H](O[C@@H]2O[C@H](CO)[C@@H](O)[C@H](O)[C@H]2O[C@@H]2O[C@H](CO)[C@@H](O)[C@H](O)[C@H]2O[C@@H]2O[C@@H](C)[C@H](O)[C@@H](O)[C@H]2O)C(C)(C)[C@@H]1CC4 [Compound 2, 23α-methyl-peruvianoside A] | 840 ± 29 | significant pancreatic lipase inhibitory activity in a concentration-dependent manner |  |
| COC(=O)/C(C)=C/[C@H]1[C@H](O)O[C@H]2C[C@@]3(C)C4=C(CC[C@]3(C)[C@@]2(O)[C@@H]1C)[C@@]1(C)CC[C@H](O[C@@H]2O[C@H](CO)[C@@H](O)[C@H](O)[C@H]2O[C@@H]2O[C@H](CO)[C@@H](O)[C@H](O)[C@H]2O[C@@H]2O[C@@H](C)[C@H](O)[C@@H](O)[C@H]2O)C(C)(C)[C@@H]1CC4 [Compound 4, peruvianoside A] | 1420 ± 40 |  | cAMP phosphodiesterase inhibitory activity (in words) [2]: show cyclic adenosine monophosphatase (cAMP) phosphodiesterase inhibitory activity |
| scillasaponin B |  |  | cAMP phosphodiesterase inhibitory activity (in words) [2]: show cyclic adenosine monophosphatase (cAMP) phosphodiesterase inhibitory activity |
| C[C@@H]1O[C@@H](O[C@H]2[C@H](O[C@H]3[C@H](OC[C@H]4O[C@@H](O[C@H]5CC[C@]6(C)C7=C(CC[C@H]6[C@@]5(C)CO)[C@]5(C)CC[C@@]6(OC(=O)C[C@H]6C)[C@@]5(C)CC7)[C@H](O)[C@@H](O)[C@@H]4O)OC[C@H](O)[C@@H]3O)O[C@H](CO)[C@@H](O)[C@@H]2O[C@@H]2O[C@H](CO)[C@@H](O)[C@H](O)[C@H]2O)[C@H](O)[C@H](O)[C@H]1O [Compound 11, scillanostaside G] | > 4500 | inhibited the pancreatic lipase activity in an inverted dose-dependent manner |  |
| CCC(=O)[C@@H]1C[C@@H](C)[C@]2(CC[C@@]3(C)C4=C(CC[C@@]32C)[C@@]2(C)CC[C@H](O[C@@H]3O[C@H](CO[C@@H]5OC[C@H](O)[C@H](O)[C@H]5O[C@@H]5O[C@H](CO)[C@@H](O)[C@H](O[C@@H]6O[C@H](CO)[C@@H](O)[C@H](O)[C@H]6O)[C@H]5O[C@@H]5O[C@@H](C)[C@H](O)[C@@H](O)[C@H]5O)[C@@H](O)[C@H](O)[C@H]3O)[C@](C)(CO)[C@@H]2CC4)O1 [Compound 9, 15-deoxy-eucosterol3β-[O-β-D-glucopyranosyl-(1→3)-O-[α-L-rhamnopyranosyl-(1→2)]-β-D-glucopyranosyl-(1→2)-O-α-L-arabinopyranosyl-(1→6)-O-β-D-glucopyranoside]] | 910 ± 23 |  |  |
| COC(=O)/C(C)=C/[C@H]1[C@@H](OC)O[C@H]2C[C@@]3(C)C4=C(CC[C@]3(C)[C@@]2(O)[C@@H]1C)[C@@]1(C)CC[C@H](O[C@@H]2O[C@H](CO)[C@@H](O)[C@H](O)[C@H]2O[C@@H]2O[C@H](CO)[C@@H](O)[C@H](O)[C@H]2O[C@@H]2O[C@@H](C)[C@H](O)[C@@H](O)[C@H]2O)C(C)(C)[C@@H]1CC4 [Compound 3, 23β-methyl-peruvianoside A] | 590 ± 20 | significant pancreatic lipase inhibitory activity in a concentration-dependent manner |  |
| CC(C)=CCCC(C(=O)O)C1CCC2(C)C3CCC4C(C)(CCC(O)C4(C)C)C3=CCC12C (stereo not drawn) [3β-Hydroxylanosta 9,24-dien-21-oic acid] |  |  | pancreatic lipase inhibition (in words) (pancreatic lipase): inhibit the pancreatic lipase activity |
| CC1CC2(CC(C)C3(CCC4(C)C5=C(CCC43C)C3(C)CCC(OC4OC(COC6OCC(O)C(O)C6OC6OC(CO)C(O)C(O)C6OC6OC(C)C(O)C(O)C6O)C(O)C(O)C4O)C(C)(CO)C3CC5)O2)OC1=O [Compound 6, (23S,25R)-3β,31-dihydroxy-17α,23-epoxy-5α-lanost-8-en-23,26-olactone3β-O-[O-α-L-rhamnopyranosyl-(1→2)-O-β-D-gluco-pyranosyl-(1→2)-O-α-L-arabinopyranosyl-(1→6)-O-β-D-glucopyranoside]] | 810 ± 29 | significant pancreatic lipase inhibitory activity in a concentration-dependent manner | serum TG levels (ddY mice; 300 mg/kg single oral dose): 90.9 ± 16.2 mg/dL; effect on serum triglyceride levels (in words) (ddY mice; oral, 150 or 300 mg/kg, soybean oil-loaded mice): reduced serum triglyceride levels in a dose-dependent manner |
| CCCCCCCCCCCCCCCCOc1nc2ccc(C)cc2c(=O)o1 [Cetilistat, reference compound] |  |  | IC50 ([1]; positive control, tested at 0.1, 1.0, 10 μM, mean ± S.E.M.): 1.43 ± 0.052 µM; serum TG levels (ddY mice; 180 mg/kg oral): 130.2 ± 23.4 mg/dL |
| CC1CC2(CC(C)C3(CCC4(C)C5=C(CCC43C)C3(C)CCC(OC4OC(COC6OCC(O)C(O)C6OC6OC(CO)C(O)C(O)C6OC6OC(C)C(O)C(O)C6O)C(O)C(O)C4O)C(CO)(CO)C3CC5)O2)OC1=O [Compound 7, (23S,25R)-3β,30,31-trihydroxy-17α,23-epoxy-5α-lanost-5-en-23,26-olactone3-O-[O-α-L-rhamno-pyranosyl-(1→2)-O-β-D-glucopyranosyl-(1→2)-O-α-L-arabinopyranosyl-(1→6)-O-β-D-glucopyranoside]] | 1100 ± 15 |  |  |
